This passage reports IC50 results from paper PMC10373461, “Discovery of a Hidden Trypanosoma cruzi Spermidine Synthase Binding Site and Inhibitors through In Silico, In Vitro, and X-ray Crystallography” (ACS Omega, 2023).

Assay [1] addresses T1, Trypanosoma cruzi spermidine synthase (TcSpdSyn) (Trypanosoma cruzi, UniProt Q4DA73).
T1 construct: gene Tc00.1047053510339.50
T1 sequence (Q4DA73 1-296): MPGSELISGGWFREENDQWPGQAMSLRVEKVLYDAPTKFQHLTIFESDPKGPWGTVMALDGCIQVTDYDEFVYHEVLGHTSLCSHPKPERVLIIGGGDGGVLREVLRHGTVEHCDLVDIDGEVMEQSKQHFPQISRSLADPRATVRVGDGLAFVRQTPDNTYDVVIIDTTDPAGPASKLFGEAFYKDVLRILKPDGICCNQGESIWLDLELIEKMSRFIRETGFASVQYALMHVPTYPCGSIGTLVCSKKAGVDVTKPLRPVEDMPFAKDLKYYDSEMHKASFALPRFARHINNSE
The assay is described as follows: X-ray co-crystal structure; SSAT1-coupled enzyme inhibition assay. The class given is biochemical.

Assay [2] addresses T1, Trypanosoma cruzi spermidine synthase (TcSpdSyn). The assay is described as follows: X-ray co-crystal structure; SSAT1-coupled enzyme inhibition assay (hydrochloride salt). The class given is biochemical.

As a reminder, the IC50 is the concentration that inhibits the measured activity by half. `COc1ccc(C2=N[C@H](C)CN2)c(O)c1` [compound 1] returned an IC50 in assay [1] of 82.3 µM.

For the compound `COc1ccc(Nc2ccnc3ccccc23)cc1` [compound 2], in assay [2], the IC50 turned out to be 43.4 µM.
